Assay results published in patent US10752588B2 (The Broad Institute, Inc., priority 2014, dated 2020).

Assays:
human D2R/β-arrestin [1] = target: T1, human D2R/β-arrestin (Homo sapiens (Human), UniProt P14416); assay: β-Arrestin agonist assay (PathHunter); format: cell-based; conditions: CHO-K1 cell line expressing human D2R/β-arrestin
How it was run: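 After compound incubation, detection reagent (Buffer:Emerald II:Galactor-Star, 19:5:1) added and luminescence or fluorescence read.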

human D2R/β-arrestin [2] = target: T1, human D2R/β-arrestin; assay: Gi/cAMP agonist assay (Lance Ultra cAMP, Forskolin); format: cell-based; conditions: CHO-K1 cell line expressing human D2R/β-arrestin
How it was run: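 Cells were plated and incubated before compounds were pin-transferred and incubated for 10 min at 37 °C. Forskolin was then added to stimulate cAMP. cAMP was detected by Lance Ultra TR-FRET using Eu-cAMP tracer and ULight-anti-cAMP antibody.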

human D2R/β-arrestin [3] = target: T1, human D2R/β-arrestin; assay: cell-based; conditions: β-arrestin Antagonist, CHO-K1 cell line expressing human D2R/β-arrestin; quinpirole used as agonist
human D2R/β-arrestin [4] = target: T1, human D2R/β-arrestin; assay: cell-based; conditions: cAMP Antagonist, CHO-K1 cell line expressing human D2R/β-arrestin; quinpirole used as agonist

T1 sequence (P14416 whole entry): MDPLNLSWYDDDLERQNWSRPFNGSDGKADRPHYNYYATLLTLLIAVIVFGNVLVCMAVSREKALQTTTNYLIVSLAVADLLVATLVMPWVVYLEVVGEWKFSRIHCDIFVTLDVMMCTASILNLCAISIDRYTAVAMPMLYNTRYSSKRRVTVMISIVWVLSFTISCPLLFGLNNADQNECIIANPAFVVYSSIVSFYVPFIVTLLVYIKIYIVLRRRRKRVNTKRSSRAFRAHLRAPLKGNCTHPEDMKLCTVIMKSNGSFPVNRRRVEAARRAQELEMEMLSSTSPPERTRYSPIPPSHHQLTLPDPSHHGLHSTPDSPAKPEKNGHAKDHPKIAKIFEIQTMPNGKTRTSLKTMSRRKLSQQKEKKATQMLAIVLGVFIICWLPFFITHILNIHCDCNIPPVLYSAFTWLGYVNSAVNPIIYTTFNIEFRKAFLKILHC

EC50 (human D2R/β-arrestin [1]) [nM]	EC50 (human D2R/β-arrestin [2]) [nM]	IC50 (human D2R/β-arrestin [3]) [nM]	IC50 (human D2R/β-arrestin [4]) [nM]	SMILES
> 30000	< 100	100 to 1000	100 to 1000	Fc1ccccc1OCCN1CCC(CNC(c2ccc3c(c2)OCO3)c2ccccn2)CC1 (single isomer, unassigned) [Compound 139a, 1-(benzo[d][1,3]dioxol-5-yl)-N-((1-(2-(2-fluorophenoxy)ethyl)piperidin-4-yl)methyl)-1-(pyridin-2-yl)methanamine]
> 30000	100 to 1000	1000 to 10000	> 30000	O=C(NC(c1ccc(Cl)cc1)c1ccncc1F)C1CCN(CCOc2ccccc2F)CC1 (single isomer, unassigned) [Compound 91a, N-((4-chlorophenyl)(3-fluoropyridin-4-yl)methyl)-1-(2-(2-fluorophenoxy)ethyl)piperidine-4-carboxamide]
100 to 1000	< 100	100 to 1000	> 30000	Clc1cccc(C2CCN(CCCOc3ccc4scnc4c3)CC2)c1Cl [UNC9994, reference compound]
< 100	< 100	< 100	> 30000	CC1(C(=O)NC(c2ccc(Cl)cc2)c2ccccn2)CCN(CCOc2ccccc2)CC1 (stereo not drawn) [Compound 144, N-((4-chlorophenyl)(pyridin-2-yl)methyl)-4-methyl-1-(2-phenoxyethyl)piperidine-4-carboxamide]
100 to 1000	1000 to 10000	100 to 1000	> 30000	Fc1ccccc1OCCN1CCC(CN(CC(F)(F)F)C(c2ccc(Cl)cc2)c2ccccn2)CC1 (single isomer, unassigned) [Compound 136a, N-((4-chlorophenyl)(pyridin-2-yl)methyl)-2,2,2-trifluoro-N-((1-(2-(2-fluorophenoxy)ethyl)piperidin-4-yl)methyl)ethan-1-amine]
> 30000	100 to 1000	1000 to 10000	1000 to 10000	Fc1ccc(C(NCC2CCN(CCOc3ccccc3)CC2)c2ccccn2)cc1 (single isomer, unassigned) [Compound 78a, 1-(4-fluorophenyl)-N-((1-(2-phenoxyethyl)piperidin-4-yl)methyl)-1-(pyridin-2-yl)methanamine]
> 30000	> 30000	10000 to 30000	10000 to 30000	O=C(NC(c1ccc(F)cc1)c1ccccn1)C1CCN(CC2Cc3ccccc3C2)CC1 (stereo not drawn) [Compound 61, 1-((2,3-dihydro-1H-inden-2-yl)methyl)-N-((4-fluorophenyl)(pyridin-2-yl)methyl)piperidine-4-carboxamide]
> 30000	< 100	100 to 1000	> 30000	O=C(NC(c1ccc(Cl)cc1)c1ccccc1F)C1CCN(CCOc2cc(F)ccc2F)CC1 (stereo not drawn) [Compound 123, N-((4-chlorophenyl)(2-fluorophenyl)methyl)-1-(2-(2,5-difluorophenoxy)ethyl) piperidine-4-carboxamide]
> 30000	> 30000	< 100	< 100	O=C(NC(c1ccc(F)cc1)c1ccc(F)cc1)C1CCN(CCOc2ccccc2Cl)CC1 [Compound 83, N-(bis(4-fluorophenyl)methyl)-1-(2-(2-chlorophenoxy)ethyl)piperidine-4-carboxamide]
> 30000	> 30000	10000 to 30000	1000 to 10000	CN1CCC(C(=O)NC(c2ccc(Cl)cc2)c2ccccn2)CC1 (stereo not drawn) [Compound 64, N-((4-chlorophenyl)(pyridin-2-yl)methyl)-1-methylpiperidine-4-carboxamide]
> 30000	> 30000	1000 to 10000	100 to 1000	O=C(NC(c1ccc2c(c1)OC(F)(F)O2)c1ccccn1)C1CCN(CCOc2ccc(F)cc2F)CC1 (single isomer, unassigned) [Compound 130a, N-((2,2-difluorobenzo[d][1,3]dioxol-5-yl)(pyridin-2-yl)methyl)-1-(2-(2,4-difluorophenoxy)ethyl)piperidine-4-carboxamide]
> 30000	100 to 1000	1000 to 10000	> 30000	COc1cccc(C(NC(=O)C2CCN(CCOc3ccccc3)CC2)c2ccccc2F)c1 (stereo not drawn) [Compound 50]
> 30000	> 30000	1000 to 10000	1000 to 10000	O=C(NC(c1ccc(Cl)cc1)c1ccccn1)C1CCN(CCOc2ccccn2)CC1 (stereo not drawn) [Compound 141, N-((4-chlorophenyl)(pyridin-2-yl)methyl)-1-(2-(pyridin-2-yloxy)ethyl)piperidine-4-carboxamide]
> 30000	100 to 1000	1000 to 10000	> 30000	O=C(NC(c1ccc(Cl)cc1)c1ccccn1)C1CCN(CCOc2ccc(Cl)cc2)CC1 (stereo not drawn) [Compound 2, 1-(2-(4-chlorophenoxy)ethyl)-N-((4-chlorophenyl)(pyridine-2-yl)methyl) piperidine-4-carboxamide]
> 30000	> 30000	100 to 1000	100 to 1000	COc1cccc(C(NC(=O)C2CCN(CCOc3ccccc3Cl)CC2)c2ccccn2)c1 (stereo not drawn) [Compound 21, 1-(2-(2-chlorophenoxy)ethyl)-N-((3-methoxyphenyl)(pyridin-2-yl)methyl) piperidine-4-carboxamide]
> 30000	1000 to 10000	100 to 1000	100 to 1000	Fc1ccc(C(NCC2CCN(CCOc3ccccc3F)CC2)c2ccccn2)cc1 (stereo not drawn) [Compound 122, N-((1-(2-(2-fluorophenoxy)ethyl)piperidin-4-yl)methyl)-1-(4-fluorophenyl)-1-(pyridin-2-yl) methanamine]
> 30000	> 30000	1000 to 10000	1000 to 10000	O=C(NC(c1ccc(Cl)cc1)c1ccccn1)C1CCN(CCn2ccccc2=O)CC1 (stereo not drawn) [Compound 9, N((4-chlorophenyl)(pyridin-2-yl)methyl)-1-(2-(2-oxopyridin-1(2H)-yl)ethyl) piperidine-4-carboxamide]
> 30000	100 to 1000	100 to 1000	> 30000	Clc1ccc(C(NCC2CCN(CCOc3ccccc3)CC2)c2ccccn2)cc1 (single isomer, unassigned) [Compound 114b, 1-(4-chlorophenyl)-N-((1-(2-phenoxyethyl)piperidin-4-yl)methyl)-1-(pyridin-2-yl)methanamine]
> 30000	100 to 1000	100 to 1000	100 to 1000	O=C(NC(c1ccc(Cl)cc1)c1ccc(F)cn1)C1CCN(CCOc2ccccc2F)CC1 (single isomer, unassigned) [Compound 92a, N-((4-chlorophenyl)(5-fluoropyridin-2-yl)methyl)-1-(2-(2-fluorophenoxy)ethyl)piperidine-4-carboxamide]
> 30000	< 100	1000 to 10000	> 30000	COc1ccccc1OCCN1CCC(C(=O)NCc2nccc3ccccc23)CC1 [Compound 108, N-(isoquinolin-1-ylmethyl)-1-(2-(2-methoxyphenoxy)ethyl)piperidine-4-carboxamide]
> 30000	10000 to 30000	1000 to 10000	100 to 1000	COc1cccc(OCCN2CCC(C(=O)NC(c3ccc(Cl)cc3)c3ccccn3)CC2)c1 (stereo not drawn) [Compound 12, N-((4-chlorophenyl) (pyridin-2-yl)methyl)-1-(2-(3-methoxyphenoxy)ethyl) piperidine-4-carboxamide]
100 to 1000	100 to 1000	1000 to 10000	> 30000	CC1(C(=O)NC(c2ccc(F)cc2)c2ccccn2)CCN(CCOc2ccccc2)CC1 (single isomer, unassigned) [Compound 69a, N-((4-fluorophenyl)(pyridin-2-yl)methyl)-4-methyl-1-(2-phenoxyethyl)piperidine-4-carboxamide]
> 30000	100 to 1000	100 to 1000	> 30000	O=C(NC(c1ccc(F)cc1)c1ccccn1)C1CCN(CCOc2cc(F)ccc2F)CC1 (stereo not drawn) [Compound 57, 1-(2-(2,5-difluorophenoxy)ethyl)-N-((4-fluorophenyl)(pyridin-2-yl)methyl) piperidine-4-carboxamide]
> 30000	> 30000	100 to 1000	100 to 1000	Fc1ccc(F)c(OCCN2CCC(CNC(c3ccc(Cl)cc3)c3ccccn3)CC2)c1 (single isomer, unassigned) [Compound 89a, 1-(4-chlorophenyl)-N-((1-(2-(2,5-difluorophenoxy)ethyl)piperidin-4-yl)methyl)-1-(pyridin-2-yl)methanamine]
> 30000	> 30000	100 to 1000	1000 to 10000	FC(F)(F)CN(CC1CCN(CCOc2ccccc2)CC1)C(c1ccc(Cl)cc1)c1ccccn1 (single isomer, unassigned) [Compound 125b, N-((4-chlorophenyl)(pyridin-2-yl)methyl)-2,2,2-trifluoro-N-((1-(2-phenoxyethyl)piperidin-4-yl)methyl)ethanamine]
> 30000	< 100	< 100	< 100	CC(C)N(CC1CCN(CCOc2ccccc2F)CC1)C(c1ccc(Cl)cc1)c1ccccn1 (stereo not drawn) [Compound 133, N-((4-chlorophenyl)(pyridin-2-yl)methyl)-N-((1-(2-(2-fluorophenoxy)ethyl)piperidin-4-yl)methyl)propan-2-amine]

SMILES	EC50 (human D2R/β-arrestin [1]) [nM]	EC50 (human D2R/β-arrestin [2]) [nM]	IC50 (human D2R/β-arrestin [3]) [nM]	IC50 (human D2R/β-arrestin [4]) [nM]
O=C(NC(c1ccc2c(c1)OC(F)(F)O2)c1ccccn1)C1CCN(CCOc2ccccc2)CC1 (stereo not drawn) [Compound 119]	> 30000	< 100	100 to 1000	> 30000
